Experimental data: US4326054A, “Cleomycins and process for producing same” (Zaidan Hojin Biseibutsu Kagaku Kenkyu Kai, priority 1979, dated 1982)

System: Mycobacterium smegmatis ATCC 607
Experiment: Antimicrobial activity, agar plate-cylinder method, bleomycin A2 as standard (1,000 u/mg)
Format: cell-based
Settings: Table 5; copper-free form; relative to bleomycin A2 = 1,000 u/mg
Description: Typical examples of the biological activities measured on cleomycins (copper-free form) are illustrated below.
Comparison was made with the relevant antibiotics bleomycins. The relative antimicrobial potency (u/mg) against Mycobacterium smegmatis ATCC 607 was measured by agar plate-cylinder method using bleomycin A2 as a standard (1,000 u/mg).
(Note: The antimicrobial potency was determined by taking bleomycin
A2 as 1,000 μ/mg and using Mycobacterium smegmatis ATCC 607 as a
test bacterium. Herinafter, the same was applied.)

| Structure (SMILES) | Antimicrobiral potency |
| --- | --- |
| Cc1c(N)nc(C(CC(N)=O)NCC(N)C(N)=O)nc1C(=O)NC(C(=O)NC(C)C(O)C(C)C(=O)NC(C(=O)NCCc1nc(-c2nc(C(=O)NCCCCNC(=N)N)cs2)cs1)C1(O)CC1)C(OC1OC(CO)C(O)C(O)C1OC1OC(CO)C(O)C(OC(N)=O)C1O)c1cnc[nH]1 (centres unmarked) [Compound No. 2, 4-guanidinobutylaminocleomycin] | 3,262 u/mg |
| Cc1c(N)nc(C(CC(N)=O)NCC(N)C(N)=O)nc1C(=O)NC(C(=O)NC(C)C(O)C(C)C(=O)NC(C(=O)NCCc1nc(-c2nc(C(=O)NCCCNCCCN3CCCC3)cs2)cs1)C1(O)CC1)C(OC1OC(CO)C(O)C(O)C1OC1OC(CO)C(O)C(OC(N)=O)C1O)c1cnc[nH]1 (centres unmarked) [compound 26, 3-[3-(1-pyrrolidinyl)propylamino]propylaminocleomycin] | 3,590 u/mg |
| Cc1c(N)nc(C(CC(N)=O)NCC(N)C(N)=O)nc1C(=O)NC(C(=O)NC(C)C(O)C(C)C(=O)NC(C(=O)NCCc1nc(-c2nc(C(=O)NCCCNCCCN)cs2)cs1)C1(O)CC1)C(OC1OC(CO)C(O)C(O)C1OC1OC(CO)C(O)C(OC(N)=O)C1O)c1cnc[nH]1 (centres unmarked) [compound 43, 3-(3-aminopropylamino)propylaminocleomycin] | 2,790 u/mg |
| Cc1c(N)nc(C(CC(N)=O)NCC(N)C(N)=O)nc1C(=O)NC(C(=O)NC(C)C(O)C(C)C(=O)NC(C(=O)NCCc1nc(-c2nc(C(=O)NCCC[N+](C)(C)C)cs2)cs1)C1(O)CC1)C(OC1OC(CO)C(O)C(O)C1OC1OC(CO)C(O)C(OC(N)=O)C1O)c1cnc[nH]1 (centres unmarked) [compound 18, 3-(N,N,N-trimethylamino)propylaminocleomycin] | 878 u/mg |
| Cc1c(N)nc(C(CC(N)=O)NCC(N)C(N)=O)nc1C(=O)NC(C(=O)NC(C)C(O)C(C)C(=O)NC(C(=O)NCCc1nc(-c2nc(C(=O)NCCNCC(C)O)cs2)cs1)C1(O)CC1)C(OC1OC(CO)C(O)C(O)C1OC1OC(CO)C(O)C(OC(N)=O)C1O)c1cnc[nH]1 (centres unmarked) [compound 12, 2-(2-hydroxypropylamino)ethylaminocleomycin] | 2,280 u/mg |
| Cc1c(N)nc(C(CC(N)=O)NCC(N)C(N)=O)nc1C(=O)NC(C(=O)NC(C)C(O)C(C)C(=O)NC(C(=O)NCCc1nc(-c2nc(C(=O)NCCc3cnc[nH]3)cs2)cs1)C1(O)CC1)C(OC1OC(CO)C(O)C(O)C1OC1OC(CO)C(O)C(OC(N)=O)C1O)c1cnc[nH]1 (centres unmarked) [compound 40, 2-(4-imidazolyl)ethylaminocleomycin] | 1,147 u/mg |
| Cc1c(N)nc(C(CC(N)=O)NCC(N)C(N)=O)nc1C(=O)NC(C(=O)NC(C)C(O)C(C)C(=O)NC(C(=O)NCCc1nc(-c2nc(C(=O)NCCCN3CCNCC3)cs2)cs1)C1(O)CC1)C(OC1OC(CO)C(O)C(O)C1OC1OC(CO)C(O)C(OC(N)=O)C1O)c1cnc[nH]1 (centres unmarked) [compound 13, 3-(1-piperazinyl)propylaminocleomycin] | 980 u/mg |
| Cc1c(N)nc(C(CC(N)=O)NCC(N)C(N)=O)nc1C(=O)NC(C(=O)NC(C)C(O)C(C)C(=O)NC(C(=O)NCCc1nc(-c2nc(C(=O)NCCCNC(C)CCN)cs2)cs1)C1(O)CC1)C(OC1OC(CO)C(O)C(O)C1OC1OC(CO)C(O)C(OC(N)=O)C1O)c1cnc[nH]1 (centres unmarked) [compound 21, 3-(3-amino-1-methylpropylamino)propylaminocleomycin] | 2,620 u/mg |
| Cc1c(N)nc(C(CC(N)=O)NCC(N)C(N)=O)nc1C(=O)NC(C(=O)NC(C)C(O)C(C)C(=O)NC(C(=O)NCCc1nc(-c2nc(C(=O)NCCCCN)cs2)cs1)C1(O)CC1)C(OC1OC(CO)C(O)C(O)C1OC1OC(CO)C(O)C(OC(N)=O)C1O)c1cnc[nH]1 (centres unmarked) [compound 5, 4-aminobutylaminocleomycin] | 1,935 u/mg |
| Cc1c(N)nc(C(CC(N)=O)NCC(N)C(N)=O)nc1C(=O)NC(C(=O)NC(C)C(O)C(C)C(=O)NC(C(=O)NCCc1nc(-c2nc(C(=O)NCCCN)cs2)cs1)C1(O)CC1)C(OC1OC(CO)C(O)C(O)C1OC1OC(CO)C(O)C(OC(N)=O)C1O)c1cnc[nH]1 (centres unmarked) [compound 4, 3-aminopropylaminocleomycin] | 2,150 u/mg |
| COCCCNCCCNC(=O)c1csc(-c2csc(CCNC(=O)C(NC(=O)C(C)C(O)C(C)NC(=O)C(NC(=O)c3nc(C(CC(N)=O)NCC(N)C(N)=O)nc(N)c3C)C(OC3OC(CO)C(O)C(O)C3OC3OC(CO)C(O)C(OC(N)=O)C3O)c3cnc[nH]3)C3(O)CC3)n2)n1 (centres unmarked) [compound 31, 3-(3-methoxypropylamino)propylaminocleomycin] | 1,869 u/mg |
| Cc1c(N)nc(C(CC(N)=O)NCC(N)C(N)=O)nc1C(=O)NC(C(=O)NC(C)C(O)C(C)C(=O)NC(C(=O)NCCc1nc(-c2nc(C(=O)NCCCNCc3ccccc3)cs2)cs1)C1(O)CC1)C(OC1OC(CO)C(O)C(O)C1OC1OC(CO)C(O)C(OC(N)=O)C1O)c1cnc[nH]1 (centres unmarked) [compound 32, 3-benzylaminopropylaminocleomycin] | 6.977 u/mg |
| Cc1c(N)nc(C(CC(N)=O)NCC(N)C(N)=O)nc1C(=O)NC(C(=O)NC(C)C(O)C(C)C(=O)NC(C(=O)NCCc1nc(-c2nc(C(=O)NCCCNCCCN3CCOCC3)cs2)cs1)C1(O)CC1)C(OC1OC(CO)C(O)C(O)C1OC1OC(CO)C(O)C(OC(N)=O)C1O)c1cnc[nH]1 (centres unmarked) [compound 28, 3-(3-morpholinopropylamino)propylaminocleomycin] | 1,715 u/mg |
| Cc1c(N)nc(C(CC(N)=O)NCC(N)C(N)=O)nc1C(=O)NC(C(=O)NC(C)C(O)C(C)C(=O)NC(C(=O)NCCc1nc(-c2nc(C(=O)NCCCNCCCCCCN)cs2)cs1)C1(O)CC1)C(OC1OC(CO)C(O)C(O)C1OC1OC(CO)C(O)C(OC(N)=O)C1O)c1cnc[nH]1 (centres unmarked) [compound 44, 3-(6-aminohexylamino)propylaminocleomycin] | 3,520 u/mg |
| Cc1c(N)nc(C(CC(N)=O)NCC(N)C(N)=O)nc1C(=O)NC(C(=O)NC(C)C(O)C(C)C(=O)NC(C(=O)NCCc1nc(-c2nc(C(=O)NCCCNCCc3ccccn3)cs2)cs1)C1(O)CC1)C(OC1OC(CO)C(O)C(O)C1OC1OC(CO)C(O)C(OC(N)=O)C1O)c1cnc[nH]1 (centres unmarked) [compound 41, 3-[2-(2-pyridyl)ethylamino]propylaminocleomycin] | 6,068 u/mg |
| Cc1c(N)nc(C(CC(N)=O)NCC(N)C(N)=O)nc1C(=O)NC(C(=O)NC(C)C(O)C(C)C(=O)NC(C(=O)NCCc1nc(-c2nc(C(=O)NCCCNCCCNCc3ccccc3)cs2)cs1)C1(O)CC1)C(OC1OC(CO)C(O)C(O)C1OC1OC(CO)C(O)C(OC(N)=O)C1O)c1cnc[nH]1 (centres unmarked) [compound 45, 3-(3-benzylaminopropylamino)propylaminocleomycin] | 8,400 u/mg |
| Cc1c(N)nc(C(CC(N)=O)NCC(N)C(N)=O)nc1C(=O)NC(C(=O)NC(C)C(O)C(C)C(=O)NC(C(=O)NCCc1nc(-c2nc(C(=O)NCCN)cs2)cs1)C1(O)CC1)C(OC1OC(CO)C(O)C(O)C1OC1OC(CO)C(O)C(OC(N)=O)C1O)c1cnc[nH]1 (centres unmarked) [Compound No. 3, 2-aminoethylaminocleomycin] | 2,760 u/mg |
| Cc1c(N)nc(C(CC(N)=O)NCC(N)C(N)=O)nc1C(=O)NC(C(=O)NC(C)C(O)C(C)C(=O)NC(C(=O)NCCc1nc(-c2nc(C(=O)NCCCNCCCN(C)C)cs2)cs1)C1(O)CC1)C(OC1OC(CO)C(O)C(O)C1OC1OC(CO)C(O)C(OC(N)=O)C1O)c1cnc[nH]1 (centres unmarked) [compound 19, 3-[3-(N,N-dimethylamino)propyl]propylaminocleomycin] | 2,004 u/mg |
| Cc1c(N)nc(C(CC(N)=O)NCC(N)C(N)=O)nc1C(=O)NC(C(=O)NC(C)C(O)C(C)C(=O)NC(C(=O)NCCc1nc(-c2nc(C(=O)NCCCN3CCOCC3)cs2)cs1)C1(O)CC1)C(OC1OC(CO)C(O)C(O)C1OC1OC(CO)C(O)C(OC(N)=O)C1O)c1cnc[nH]1 (centres unmarked) [compound 24, 3-morpholinopropylaminocleomycin] | 800 u/mg |
| Cc1c(N)nc(C(CC(N)=O)NCC(N)C(N)=O)nc1C(=O)NC(C(=O)NC(C)C(O)C(C)C(=O)NC(C(=O)NCCc1nc(-c2nc(C(=O)NCCCNCCCCN)cs2)cs1)C1(O)CC1)C(OC1OC(CO)C(O)C(O)C1OC1OC(CO)C(O)C(OC(N)=O)C1O)c1cnc[nH]1 (centres unmarked) [compound 6, 3-(4-aminobutylamino)propylaminocleomycin] | 3,575 u/mg |
| Cc1c(N)nc(C(CC(N)=O)NCC(N)C(N)=O)nc1C(=O)NC(C(=O)NC(C)C(O)C(C)C(=O)NC(C(=O)NCCc1nc(-c2nc(C(=O)NCCCNCCCNC(C)c3ccccc3)cs2)cs1)C1(O)CC1)C(OC1OC(CO)C(O)C(O)C1OC1OC(CO)C(O)C(OC(N)=O)C1O)c1cnc[nH]1 (centres unmarked) [compound 14, 3-[3-(1-phenylethylamino)propylamino]propylaminocleomycin] | 11,420 u/mg |
| Cc1c(N)nc(C(CC(N)=O)NCC(N)C(N)=O)nc1C(=O)NC(C(=O)NC(C)C(O)C(C)C(=O)NC(C(=O)NCCc1nc(-c2nc(C(=O)NCCCN(C)CCCNCc3ccccc3)cs2)cs1)C1(O)CC1)C(OC1OC(CO)C(O)C(O)C1OC1OC(CO)C(O)C(OC(N)=O)C1O)c1cnc[nH]1 (centres unmarked) [compound 46, 3-[N-methyl-N-(3-benzylaminopropyl)]aminopropylcleomycin] | 7,660 u/mg |
| Cc1c(N)nc(C(CC(N)=O)NCC(N)C(N)=O)nc1C(=O)NC(C(=O)NC(C)C(O)C(C)C(=O)NC(C(=O)NCCc1nc(-c2nc(C(=O)NCCCNCCCNC3CCCCC3)cs2)cs1)C1(O)CC1)C(OC1OC(CO)C(O)C(O)C1OC1OC(CO)C(O)C(OC(N)=O)C1O)c1cnc[nH]1 (centres unmarked) [compound 37, 3-(3-cyclohexylaminopropylamino)propylaminocleomycin] | 14,784 u/mg |
| Cc1c(N)nc(C(CC(N)=O)NCC(N)C(N)=O)nc1C(=O)NC(C(=O)NC(C)C(O)C(C)C(=O)NC(C(=O)NCCc1nc(-c2nc(C(=O)NCCCNCCCCCCO)cs2)cs1)C1(O)CC1)C(OC1OC(CO)C(O)C(O)C1OC1OC(CO)C(O)C(OC(N)=O)C1O)c1cnc[nH]1 (centres unmarked) [compound 42, 3-(6-hydroxyhexylamino)propylaminocleomycin] | 4,806 u/mg |

System: not listed separately
Experiment: Solubility (physical and chemical properties, Tables 4-1 and 4-2)
Settings: hydrochloride, copper-containing form; also soluble in dimethylformamide, dimethylsulfoxide, and methanol

| Structure (SMILES) | Solubility |
| --- | --- |
| Cc1c(N)nc(C(CC(N)=O)NCC(N)C(N)=O)nc1C(=O)NC(C(=O)NC(C)C(O)C(C)C(=O)NC(C(=O)NCCc1nc(-c2nc(C(=O)NCCCCNC(=N)N)cs2)cs1)C1(O)CC1)C(OC1OC(CO)C(O)C(O)C1OC1OC(CO)C(O)C(OC(N)=O)C1O)c1cnc[nH]1 (centres unmarked) [Compound No. 2, 4-guanidinobutylaminocleomycin] | Soluble in water |

Same assay, conditions: hydrochloride, copper-free form; also soluble in dimethylformamide, dimethylsulfoxide, and methanol

| Structure (SMILES) | Solubility |
| --- | --- |
| Cc1c(N)nc(C(CC(N)=O)NCC(N)C(N)=O)nc1C(=O)NC(C(=O)NC(C)C(O)C(C)C(=O)NC(C(=O)NCCc1nc(-c2nc(C(=O)NCCCCNC(=N)N)cs2)cs1)C1(O)CC1)C(OC1OC(CO)C(O)C(O)C1OC1OC(CO)C(O)C(OC(N)=O)C1O)c1cnc[nH]1 (centres unmarked) [Compound No. 2, 4-guanidinobutylaminocleomycin] | Soluble in water |
